Laboratory results published in US20250235411A1, “COMPOSITIONS AND METHODS FOR DELIVERY OF AGENTS” (Kernal Biologics, Inc., priority 2021, published 2025).

Experiments:
[1] = test system: BALB/c mice; assay: In vivo luciferase quantitation, Example 4 (cationic ionizable lipid pKa>7 LNPs); set-up: species or system mouse; settings: LIP021 LNPs with LIP001 or without lipid <7 pKa
Description: (§1) The ratio of the sum of ionizable amines and cationic quaternary ammonium ions to mRNA phosphates in the LNP was 6. Lipids were dissolved in ethanol and mRNA was dissolved in 50 mM Citrate buffer pH 5.0. The organic and aqueous phases were combined at a flow rate of 12 mL/min on a Precision Nanosystems NanoAssemblr at a ratio of 3:1 (aqueous: organic). The product was immediately diluted to 16.5% ethanol using MilliQ water. The diluted product was dialyzed against a volume of 50 mM Tris pH 7.5 45 mM NaCl that was 300-fold in excess. The dialyzed product was concentrated using Amicon Ultra 100 kDa centrifuge tubes and sterile filtered. mRNA concentration and encapsulation was assessed by the Invitrogen Ribogreen assay.
(§2) LNPs were administered to BALB/c mice via the tail vein at a dose of 0.5 mg/kg. After eighteen hours bioluminescence was measured using an IVIS Spectrum imager. Mice were treated with 150 mg/kg luciferin substrate administered via intraperitoneal injection. Immediately following the in vivo image mice were euthanized and the lung, liver and spleen were harvested for ex vivo imaging.

[2] = test system: B6 albino mice; assay: In vivo luciferase quantitation, Example 1 (IVIS, in vivo and ex vivo lung, liver, spleen); set-up: species or system mouse; settings: lipid added at 50 mol % to liver targeting LNPs
Description: Luciferase mRNA was formulated in LNPs containing a cationic ionizable lipid LIP001, cholesterol, DSPC, and PEG-DMG, in the presence or absence of the cationic lipid or cationic ionizable lipid pKa>7 according to the following molar ratios:
as §1, with “phosphates” for “phosphates in the LNP”, “200-fold” for “300-fold”
as §2, with “B6 albino” for “BALB/c”, “0.3” for “0.5”, “six” for “eighteen”

How did the “lung targeting, ex vivo bioluminescence (FIG. 10-11)” value [1] turn out when `CCCCC/C=C\C/C=C\CCCCCCCC(=O)OCC(COC(=O)CCC(OCCCCCCCC)OCCCCCCCC)COC(=O)NCCCN1CCC(O)CC1` (centres unmarked) [LIP021, 3-((4,4-bis(octyloxy)butanoyl)oxy)-2-((((3-(4-hydroxy-piperidin-1-yl)propyl)carbamoyl)oxy)methyl) propyl (9Z,12Z)-octadeca-9,12-dienoate] was run?
The value was “does not exhibit a lung-targeting effect”.

How did the “shift of distribution of luciferase expression to the lungs” value [2] turn out when `CC(C)CCC[C@@H](C)[C@H]1CC[C@H]2[C@@H]3CC=C4C[C@@H](OC(=O)NCCN(C)C)CC[C@]4(C)[C@H]3CC[C@]12C.Cl` [DC Cholesterol, DC- Cholesterol] was run?
The value was ~40 fold.
